Structures can show the parent of a compound that is named as a salt. Where two headings read alike, the source gives them in different places.
Tests used:
[1] = molecular target: α1-receptors ([3H]prazosin); assay: [3H]Prazosin binding (α1-receptors), rat cerebral cortices; conditions: rat cerebral cortex, 0.35 nM [3H]prazosin, 25° C., 30 min; read-out: [3H] prazosine IC50
Experimental: Rat cerebral cortices were homogenized in 50 volumes of original wet weight of ice-cold 50 mM Tris-HCl buffer pH 7.4. The homogenates were centrifuged at 48,000 × g for 10 minutes, and the pellets were resuspended in the same volume of ice-cold buffer, centrifuged and resuspended two more times. […] The incubations were terminated by rapid filtration through Whatman GF/B, filters using a Brandel cell harvester and the filters were washed with 3×3 ml of ice-cold buffer. The radioactivity retained on the filters was determined by liquid scintillation counting. Data analysis The inhibition of specific binding of the radioligands by the tested drugs was analyzed to estimate the IC50 value by using the non-linear curve-fitting program Allfit [A. De Lean et al., Am. J. Physiol.

[2] = in vivo; conditions: mouse, mice, mortality 7 days after administration
Experimental: 20-30 g b.w., were obtained from Charles River, Italy. Animals were housed with free access to food and water and maintained on forced light-dark cycle at 22°-24° C. until the day of experiments.
The acute toxicity of synthesized compounds was evaluated in female Albino Swiss mice after intraperitoneal and oral administration. Four logarithmic scaled doses of the compounds were dissolved or suspended in 0.5% Methocel and administered in a volume of 10 ml/kg to groups of 4 mice/dose. Mortality was recorded 7 days after the administration.

[3] = ip, intraperitoneal, read-out: DL50 i.p.

SMILES | IC50 [1] [nM] | LD50 at 168 h [2, 3] [mg/kg] | LD50 at 168 h ([2]; oral, read-out: DL50 p.o.) [mg/kg]
COc1cc2nc(N3CCN(C(=O)CCNC(=O)OCc4ccccc4)CC3)nc(N)c2cc1OC [Example 5, 4-Amino-6,7-dimethoxy-2-{4-[(3-benzyloxycarbonylamino)propionyl]-1-piperazinyl}-quinazoline hydrochloride emihydrate] | 283 | 300 | > 3000
COc1cc2nc(N(C)CCC(c3ccccc3)c3ccccc3)nc(N)c2cc1OC [Example 29, 4-Amino-6,7-dimethoxy-2-(N-methyl-3,3-diphenylpropylamino)-guinazoline hydrochloride] | 85 | 163 | > 2000
COc1cc2nc(N3CCN(C(=O)C(C)Oc4c(OC)cccc4C(C)C)CC3)nc(N)c2cc1OC.Cl (stereo not drawn) [Example 26, 4-Amino-6,7-dimethoxy-2-{4-[2-(2-methoxy-6-isopropylphenoxy)propionyl]-1-piperazinyl}-quinazoline hydrochloride] | 123 | 115 | 1960
COc1cc2nc(N3CCN(C(=O)CCN)CC3)nc(N)c2cc1OC [Example 7, 4-Amino-6,7-dimethoxy-2-[4-(3-aminopropionyl)-1-piperazinyl]-guinazoline dihydrobromide . 1.75 H2 O] | 48 | 187 | > 3000
COc1cc2nc(N3CCN(C(=O)CC(O)c4ccccc4)CC3)nc(N)c2cc1OC (stereo not drawn) [Example 14, 4-Amino-6,7-dimethoxy-2-[4-(3-hydroxy-3-phenylpropionyl)-1-piperazinyl]-quinazoline] | 19 | > 1000 | > 3000
COc1cc2nc(N3CCN(C(=O)CCCNS(C)(=O)=O)CC3)nc(N)c2cc1OC [Example 9, 4-Amino-6,7-dimethoxy-2-{4-[(4-methylsulfonylamino)butirry]-1-piperazinyl}-quinazoline hydrochloride] | 86 | > 500 | 
COc1cc2nc(N3CCN(C(=O)CC(N)=O)CC3)nc(N)c2cc1OC [Example 17, 4-Amino-6,7-dimethoxy-2-[4-(3-oxo-3-aminopropionyl)-1-piperazinyl]-quinazoline hydrochloride hydrate] | 105 |  | 
COc1cc2nc(N3CCN(C(=O)NCCN(C)C)CC3)nc(N)c2cc1OC.Cl.Cl.O.O.O.O [Example 10, 4-Amino-6,7-dimethoxy-2-{4-[(2-dimethylaminoethyl)amino-carbonyl]-1-piperazinyl}-quinazoline dihydrochloride tetrahydrate] | 55 | 23 | 1350
COc1cc2nc(N3CCN(C(=O)C(c4ccccc4)c4ccccc4)CC3)nc(N)c2cc1OC [Example 3, 4-Amino-6,7-dimethoxy-2-[4-(2,2-diphenylacetyl)-1-piperazinyl]-quinazoline hydrochloride . 0.75 H2 O] | 5 | 112 | 868
COc1cc2nc(N3CCN(C(c4ccccc4)c4ccccc4)CC3)nc(N)c2cc1OC [Example 2, 4-Amino-6,7-dimethoxy-2-(4-diphenylmethyl-1-piperazinyl)-guinazoline bihydrochloride emihydrate] | 40 |  | 
COc1cc2nc(N3CCC(c4ccccc4)(c4ccccc4)CC3)nc(N)c2cc1OC [Example 32, 4-Amino-6,7-dimethoxy-2-(4,4-diphenyl-1-piperidinyl)-guinazoline hydrochloride . 0.65 H2 O] | 259 | > 500 | > 2000
COc1cc2nc(N3CCN(C(=O)COc4cc(C)ccc4C(C)C)CC3)nc(N)c2cc1OC [Example 25, 4-Amino-6,7-dimethoxy-2-{4-[(2-isopropyl-5-methylphenoxy)acetyl]-1-piperazinyl}-quinazoline hydrochloride . 0.25 H2 O] | 157 | 346 | > 3000
COc1cc2nc(N3CCN(C(=O)CNC(=O)CNC(=O)OCc4ccccc4)CC3)nc(N)c2cc1OC [Example 12, 4-Amino-6,7-dimethoxy-2-{4-[2-[2-(benzyloxycarbonylamino)-acetylamino]acetyl]-1-piperazinyl}-quinazoline hydrochloride hemihydrate] | 29 | 1130 | > 2000
CCCCNC(=O)CC(=O)N1CCN(c2nc(N)c3cc(OC)c(OC)cc3n2)CC1.Cl [Example 19, 4-Amino-6,7-dimethoxy-2-[4-(3-n-butylamino-3-oxopropionyl)-1-piperazinyl]-quinazoline hydrochloride] | 96 | 459 | > 2000
COc1cc2nc(N3CCN(C(=O)CNC(=O)OCc4ccccc4)CC3)nc(N)c2cc1OC.Cl [Example 11, 4-Amino-6,7-dimethoxy-2-{4-[2-(benzyloxycarbonylamino)-acetyl]-1-piperazinyl}-quinazoline hydrochloride] | 61 | > 1000 | > 3000
COc1cc2nc(N3CCN(C(=O)CCCN)CC3)nc(N)c2cc1OC [Example 8, 4-Amino-6,7-dimethoxy-2-[4-(4-aminobutirryl)-1-piperazinyl]-guinazoline dihydrobromide . 0.25 H2 O] | 47 | 219 | > 3000
COc1cc2nc(N(C)Cc3ccccc3)nc(N)c2cc1OC [Example 28, 4-Amino-6,7-dimethoxy-2-(N-benzyl-N-methylamino)-guinazoline hydrochloride] | 70 | 89 | 293
COc1cc2nc(N(C)CCCN3CCN(c4ccccc4OC)CC3)nc(N)c2cc1OC.Cl.Cl.O.O [Example 31, 4-Amino-6,7-dimethoxy-2-{N-methyl-N-{3-[4-(2-methoxyphenyl)-1-piperazinyl]propyl}amino}-quinazoline dihydrochloride dihydrate] | 12 | 70 | > 2000
COc1cc2nc(N3CCN(C(=O)CC(c4ccccc4)c4ccccc4)CC3)nc(N)c2cc1OC [Example 4, 4-Amino-6,7-dimethoxy-2-[4-(3,3-diphenylpropionyl)-1-piperazinyl]-guinazoline hydrochloride] | 3 | 97 | > 3000
COc1cc2nc(N3CCN(C(=O)COc4ccccc4OC)CC3)nc(N)c2cc1OC.Cl [Example 23, 4-Amino-6,7-dimethoxy-2-[4-(2-methoxyphenoxyacetyl)-1-piperazinyl]-quinazoline hydrochloride] |  | 337 | > 2000
COc1cc2nc(N3CCc4c(ccc5ccccc45)C3)nc(N)c2cc1OC [Example 30, 4-Amino-6,7-dimethoxy-2-(1,2,3,4-tetrahydrobenzo[f]isoquinolin-2-yl)-quinazoline . 0.25 ethanole] | 5 |  | 
COc1cc2nc(N3CCN(C(=O)COc4c(OC)cccc4OC)CC3)nc(N)c2cc1OC [Example 27, 4-Amino-6,7-dimethoxy-2-[4-(2,6-dimethoxyphenoxy)acetyl-1-piperazinyl]-quinazoline hydrochloride . 0.25 H2 O] | 6 |  | 
COc1cc2nc(N3CCN(C(=O)CC(=O)Nc4ccccc4)CC3)nc(N)c2cc1OC [Example 20, 4-Amino-6,7-dimethoxy-2-[4-(phenylaminocarbonylacetyl)-1-piperazinyl]-quinazoline hydrochloride hemihydrate] | 67 |  | 

— patent US5798362A, “Quinazolinyl-amino derivatives having α-antagonist activity” (Recordati S.A. Chemical and Pharmaceutical Company, priority 1994, dated 1998)
